This passage reports IC50 results from US9133104B2 (Chroma Therapeutics Ltd., priority 2005, dated 2015).

The subject of one assay is HUT cancer cell line. As to the kind of experiment: Cell inhibition assay (SRB cell viability), HUT. The assay is classed as cell-based. The following applies: HUT cells, 72 h, IC50 range. On the procedure:
(§1) The corresponding cancer cell lines (Hela, U937 and HUT) growing in log phase were harvested and seeded at 1000 cells/well (200 ul final volume) into 96-well tissue culture plates. Following 24 h of cell growth cells were treated with compounds (final concentration of 20 uM). Plates were then re-incubated for a further 72 h before a sulphorhodamine B (SRB) cell viability assay was conducted according to Skehan 1990 J Natl Canc Inst 82, 1107-1112.
(§2) Data were expressed as a percentage inhibition of the control, measured in the absence of inhibitor, as follows:— % inhibition=100−((S^i/S^o)×100) where S^i is the signal in the presence of inhibitor and S^o is the signal in the presence of DMSO. IC50 values were determined by non-linear regression analysis, after fitting the results of eight data points to the equation for sigmoidal dose response with variable slope (% activity against log concentration of compound), using Graphpad Prism software. […] NT=Not tested

In another assay the test system is U937 cancer cell line. As to the kind of experiment: Cell inhibition assay (SRB cell viability), U937. It counts as cell-based. The following applies: Homo sapiens, U-937, U937 cells, 72 h, IC50 range. The protocol: as §1, §2
For assay [1], the target named is T1, histone deacetylase activity (HeLa nuclear extract).
T1 construct: Histone deacetylase activity from crude nuclear extract derived from HeLa cells was used for screening
The assay can be described thus: HDAC fluorescent activity assay (Biomol Fluor de Lys), HeLa nuclear extract. The assay is classed as biochemical. The following applies: Fluor de Lys substrate, IC50 range. In outline: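 Crude HeLa nuclear extract (20 mM Hepes, 100 mM KCl, 0.2 mM EDTA, 0.5 mM DTT, 0.2 mM PMSF, 20% glycerol) incubated with acetyl-lysine Fluor de Lys substrate ± inhibitor; developer generates fluorophore. Background-subtracted % of vehicle control; IC50 from eight-point variable-slope sigmoidal fit.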

A further assay relates to Hela cancer cell line. The assay can be described thus: Cell inhibition assay (SRB cell viability), Hela. It counts as cell-based. To be noted: Homo sapiens, HeLa, 72 h, Hela cells, IC50 range. The protocol:
as §1, §2

Molecules are shown by their SMILES.

Consider `CC(C)(C)OC(=O)[C@@H](NC(=O)[C@H]1Cc2c([nH]c3ccccc23)CN1C(=O)CCCCCCC(=O)NO)c1ccccc1` [Compound 19, (S)-{[(R)-2-(7-Hydroxycarbamoyl-heptanoyl)-2,3,4,9-tetrahydro-1H-beta-carboline-3-carbonyl]-amino}-phenyl-acetic acid tert-butyl ester], for which the IC50 in the assay on HUT cancer cell line lay in the range of 0.33 to 3.3 µM; with U937 cancer cell line it was 0.33 to 3.3 µM; in assay [1] it was 0.101 to 1 µM; in the assay with Hela cancer cell line, 0.33 to 3.3 µM.

Consider `O=C(CCCCCCC(=O)Nc1ccc(CN[C@H](C(=O)OC2CCCC2)c2ccccc2)cc1)NO` [Compound 20, (S)-[4-(7-Hydroxycarbamoyl-heptanoylamino)-benzylamino]-phenyl-acetic acid cyclopentyl ester], for which the 50% inhibitory concentration (IC50) in the assay with HUT cancer cell line is 0.33 to 3.3 µM; in the assay on U937 cancer cell line, < 0.33 µM; in assay [1], 0.101 to 1 µM; with Hela cancer cell line, 0.33 to 3.3 µM.

`O=C(CCCCCCC(=O)Nc1ccc(CN[C@H](C(=O)O)c2ccccc2)cc1)NO` [Compound 21, (S)-[4-(7-Hydroxycarbamoyl-heptanoylamino)-benzylamino]-phenyl-acetic acid]: the IC50 is > 3.3 µM with HUT cancer cell line, > 3.3 µM with U937 cancer cell line, 0.101 to 1 µM in assay [1] and > 3.3 µM in the assay on Hela cancer cell line.

With `O=C(CCCCCCC(=O)Nc1ccc(S(=O)(=O)N[C@H](C(=O)OC2CCCC2)c2ccccc2)cc1)NO` [Compound 22, (S)-[4-(7-Hydroxycarbamoyl-heptanoylamino)-benzenesulfonylamino]-phenyl-acetic acid cyclopentyl ester], the IC50 in the assay with HUT cancer cell line lay within 0.33 to 3.3 µM; with U937 cancer cell line it was 0.33 to 3.3 µM; in assay [1] it was 0.101 to 1 µM; in the assay on Hela cancer cell line, 0.33 to 3.3 µM.

Consider `O=C(CCCCCCC(=O)Nc1ccc(S(=O)(=O)N[C@H](C(=O)O)c2ccccc2)cc1)NO` [Compound 23, (S)-[4-(7-Hydroxycarbamoyl-heptanoylamino)-benzenesulfonylamino]-phenyl-acetic acid], for which the half-maximal inhibitory concentration (IC50) with HUT cancer cell line was > 3.3 µM; in the assay on U937 cancer cell line, > 3.3 µM; in assay [1], 0.101 to 1 µM; with Hela cancer cell line, > 3.3 µM.

As to `O=C(CCCCCCC(=O)N1CCc2c([nH]c3ccc(OCC(=O)N[C@H](C(=O)OC4CCCC4)c4ccccc4)cc23)C1)NO` [Compound 24, (S)-{2-[2-(7-Hydroxycarbamoyl-heptanoyl)-2,3,4,9-tetrahydro-1H-beta-carbolin-6-yloxy]-acetylamino}-phenyl-acetic acid cyclopentyl ester], the IC50 was 0.33 to 3.3 µM in the assay on HUT cancer cell line, > 3.3 µM in the assay with U937 cancer cell line, 0.101 to 1 µM in assay [1] and > 3.3 µM in the assay on Hela cancer cell line.

In the case of `O=C(CCCCCCC(=O)N1CCc2c([nH]c3ccc(OCC(=O)N[C@H](C(=O)O)c4ccccc4)cc23)C1)NO` [Compound 25], the IC50 is > 3.3 µM in the assay on HUT cancer cell line, > 3.3 µM in the assay with U937 cancer cell line, 0.101 to 1 µM in assay [1] and > 3.3 µM in the assay with Hela cancer cell line.

For `CCOC(=O)[C@H](Cc1ccccc1)NCc1cccc(NC(=O)CCCCCCC(=O)NO)c1` [Compound 26, (S)-2-[3-(7-Hydroxycarbamoyl-heptanoylamino)-benzylamino]-3-phenyl-propionic acid ethyl ester], the IC50 in the assay on HUT cancer cell line was 0.33 to 3.3 µM; in the assay with U937 cancer cell line, 0.33 to 3.3 µM; in assay [1], < 0.1 µM; with Hela cancer cell line, 0.33 to 3.3 µM.

For `O=C(CCCCCCC(=O)Nc1cccc(CN[C@@H](Cc2ccccc2)C(=O)OC2CCCC2)c1)NO` [Compound 28, (S)-2-[3-(7-Hydroxycarbamoyl-heptanoylamino)-benzylamino]-3-phenyl-propionic acid cyclopentyl ester], the IC50 in the assay on HUT cancer cell line fell in the range of 0.33 to 3.3 µM; in the assay with U937 cancer cell line, 0.33 to 3.3 µM; in assay [1], 0.101 to 1 µM; in the assay on Hela cancer cell line it was 0.33 to 3.3 µM.

For the molecule `CCOC(=O)[C@H](CCc1ccccc1)NCc1cccc(NC(=O)CCCCCCC(=O)NO)c1` [Compound 29, (S)-2-[3-(7-Hydroxycarbamoyl-heptanoylamino)-benzylamino]-4-phenyl-butyric acid ethyl ester], the IC50 in the assay on HUT cancer cell line is 0.33 to 3.3 µM; with U937 cancer cell line it was 0.33 to 3.3 µM; in assay [1], 0.101 to 1 µM; with Hela cancer cell line, 0.33 to 3.3 µM.

With `O=C(CCCCCCC(=O)Nc1cccc(CN[C@@H](CCc2ccccc2)C(=O)OC2CCCC2)c1)NO` [Compound 31, (S)-2-[3-(7-Hydroxycarbamoyl-heptanoylamino)-benzylamino]-4-phenyl-butyric acid cyclopentyl ester], the IC50 is 0.33 to 3.3 µM with HUT cancer cell line, < 0.33 µM in the assay with U937 cancer cell line, 0.101 to 1 µM in assay [1] and 0.33 to 3.3 µM with Hela cancer cell line.

In the case of `CC(C)(C)OC[C@H](NCc1cccc(NC(=O)CCCCCCC(=O)NO)c1)C(=O)OC1CCCC1` [Compound 34, (S)-3-tert-Butoxy-2-[3-(7-hydroxycarbamoyl-heptanoylamino)-benzylamino]-propionic acid cyclopentyl ester], the IC50 in the assay on HUT cancer cell line was 0.33 to 3.3 µM; with U937 cancer cell line it was < 0.33 µM; in assay [1], 0.101 to 1 µM; in the assay with Hela cancer cell line, 0.33 to 3.3 µM.

With `CC(C)(C)OC(=O)[C@@H](NCc1cccc(NC(=O)CCCCCCC(=O)NO)c1)c1ccccc1` [Compound 35, (S)-[3-(7-Hydroxycarbamoyl-heptanoylamino)-benzylamino]-phenyl-acetic acid tert-butyl ester], the IC50 lay within 0.33 to 3.3 µM in the assay on HUT cancer cell line, 0.33 to 3.3 µM in the assay with U937 cancer cell line, 0.101 to 1 µM in assay [1] and 0.33 to 3.3 µM in the assay with Hela cancer cell line.

Turning to `O=C(CCCCCCC(=O)Nc1cccc(CN[C@H](C(=O)OC2CCCC2)c2ccccc2)c1)NO` [Compound 36, (S)-[3-(7-Hydroxycarbamoyl-heptanoylamino)-benzylamino]-phenyl-acetic acid cyclopentyl ester], the IC50 in the assay on HUT cancer cell line is 0.33 to 3.3 µM; in the assay on U937 cancer cell line, < 0.33 µM; in assay [1] it was < 0.1 µM; in the assay with Hela cancer cell line, 0.33 to 3.3 µM.

Consider `O=C(CCCCCCC(=O)Nc1cccc(CN[C@H](C(=O)O)c2ccccc2)c1)NO` [Compound 37, (S)-[3-(7-Hydroxycarbamoyl-heptanoylamino)-benzylamino]-phenyl-acetic acid], for which the IC50 in the assay with HUT cancer cell line is > 3.3 µM; with U937 cancer cell line, > 3.3 µM; in assay [1] it was 0.101 to 1 µM; in the assay on Hela cancer cell line it was > 3.3 µM.

For `O=C(CCCCCCC(=O)Nc1ccccc1CN[C@H](C(=O)OC1CCCC1)c1ccccc1)NO` [Compound 40, (S)-[2-(7-Hydroxycarbamoyl-heptanoylamino)-benzylamino]-phenyl-acetic acid cyclopentyl ester], the IC50 in the assay with HUT cancer cell line was > 3.3 µM; with U937 cancer cell line it was > 3.3 µM; in assay [1] it was > 1 µM; in the assay on Hela cancer cell line, > 3.3 µM.

Turning to `O=C(CCCCCCC(=O)Nc1ccccc1CN[C@H](C(=O)O)c1ccccc1)NO` [Compound 41, (S)-[2-(7-Hydroxycarbamoyl-heptanoylamino)-benzylamino]-phenyl-acetic acid], the IC50 was > 3.3 µM in the assay with HUT cancer cell line, > 3.3 µM with U937 cancer cell line, > 1 µM in assay [1] and > 3.3 µM in the assay on Hela cancer cell line.

On to `O=C(CCCCCCC(=O)N1CCc2c([nH]c3ccccc23)C1CN[C@H](C(=O)OC1CCCC1)c1ccccc1)NO` (stereo partly drawn) [Compound 42, (S)-{[2-(7-Hydroxycarbamoyl-heptanoyl)-2,3,4,9-tetrahydro-1H-beta-carbolin-1-ylmethyl]-amino}-phenyl-acetic acid cyclopentyl ester], for which the IC50 is 0.33 to 3.3 µM with HUT cancer cell line, 0.33 to 3.3 µM in the assay with U937 cancer cell line, > 1 µM in assay [1] and 0.33 to 3.3 µM in the assay with Hela cancer cell line.

As to `O=C(CCCCCCC(=O)N1CCc2c([nH]c3ccccc23)C1CN[C@H](C(=O)O)c1ccccc1)NO` (stereo partly drawn) [Compound 43, (S)-{[2-(7-Hydroxycarbamoyl-heptanoyl)-2,3,4,9-tetrahydro-1H-beta-carbolin-1-ylmethyl]-amino}-phenyl-acetic acid], the IC50 with HUT cancer cell line was > 3.3 µM; in the assay on U937 cancer cell line, > 3.3 µM; in assay [1] it was 0.101 to 1 µM; in the assay with Hela cancer cell line, > 3.3 µM.

With `O=C(CCCCCCC(=O)N1Cc2ccccc2C[C@H]1C(=O)N[C@H](C(=O)OC1CCCC1)c1ccccc1)NO` [Compound 44, (S)-{[(S)-2-(7-Hydroxycarbamoyl-heptanoyl)-1,2,3,4-tetrahydro-isoquinoline-3-carbonyl]-amino}-phenyl-acetic acid cyclopentyl ester], the IC50 with HUT cancer cell line was 0.33 to 3.3 µM; in the assay on U937 cancer cell line it was 0.33 to 3.3 µM; in assay [1], 0.101 to 1 µM; in the assay on Hela cancer cell line, > 3.3 µM.

Turning to `CCOC(=O)[C@@H](NC(=O)[C@@H]1Cc2ccccc2CN1C(=O)CCCCCCC(=O)NO)c1ccccc1` [Compound 46, (S)-{[(S)-2-(7-Hydroxycarbamoyl-heptanoyl)-1,2,3,4-tetrahydro-isoquinoline-3-carbonyl]-amino}-phenyl-acetic acid ethyl ester], the IC50 is 0.33 to 3.3 µM with HUT cancer cell line, 0.33 to 3.3 µM in the assay with U937 cancer cell line, > 1 µM in assay [1] and > 3.3 µM with Hela cancer cell line.
